# Assay results as given in ChEMBL document CHEMBL1201862, “PubChem BioAssay data set” (2004).
#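 Method: 48-hour compound exposure of cells in 96-well plates, five concentrations, linear interpolation of endpoints. GI50 is the concentration that inhibits growth by half.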 Activity calls are given as the source filed them. No stated cut-off is given here; in the data, active = GI50 up to about 1.1 µM and inactive = higher.
# What was measured:
# Experiment in all cases: DTP human tumour cell line panel, 48 h
# A498 = test system: A498
# ACHN = test system: ACHN
# CAKI-1 = test system: CAKI-1
# CCRF-CEM = test system: CCRF-CEM
# HCT-116 = test system: HCT-116
# HL-60 = test system: HL-60
# IGROV-1 = test system: IGROV-1
# K562 = test system: K562
# KM12 = test system: KM12
# LOX IMVI = test system: LOX IMVI
# MCF7 = test system: MCF7
# MDA-N = test system: MDA-N
# Malme-3M = test system: Malme-3M
# NCI-H23 = test system: NCI-H23
# SF-539 = test system: SF-539
# SK-MEL-28 = test system: SK-MEL-28
# SK-MEL-2 = test system: SK-MEL-2
# SK-OV-3 = test system: SK-OV-3
# SNB-19 = test system: SNB-19
# UACC-62 = test system: UACC-62
SMILES,GI50 (A498),GI50 (ACHN),GI50 (CAKI-1),GI50 (CCRF-CEM),GI50 (HCT-116),GI50 (HL-60),GI50 (IGROV-1),GI50 (K562),GI50 (KM12),GI50 (LOX IMVI),GI50 (MCF7),GI50 (MDA-N),GI50 (Malme-3M),GI50 (NCI-H23),GI50 (SF-539),GI50 (SK-MEL-28),GI50 (SK-MEL-2),GI50 (SK-OV-3),GI50 (SNB-19),GI50 (UACC-62)
Clc1ccc(-c2nc3cc(C45CC6CC(CC(C6)C4)C5)ccc3[nH]2)cc1,> 95.7 µM (inactive),51.8 µM (inactive),> 59.3 µM (inactive),8.3 µM (inactive),22.5 µM (inactive),2.07 µM (inactive),> 100 µM (inactive),< 0.01 µM (active),13.1 µM (inactive),18.3 µM (inactive),18.5 µM (inactive),32.1 µM (inactive),24.5 µM (inactive),52.4 µM (inactive),51.6 µM (inactive),75 µM (inactive),> 100 µM (inactive),> 100 µM (inactive),44.4 µM (inactive),31.3 µM (inactive)
CSc1nc2ccccc2c(=O)n1/N=C1\C(=O)N(CN2CCOCC2)c2ccc(Cl)cc21,26.2 µM (inactive),26.1 µM (inactive),25.5 µM (inactive),10.6 µM (inactive),22.4 µM (inactive),8.61 µM (inactive),16.8 µM (inactive),5.77 µM (inactive),29.5 µM (inactive),15.2 µM (inactive),19.6 µM (inactive),31.8 µM (inactive),> 100 µM (inactive),21.8 µM (inactive),26.7 µM (inactive),56.2 µM (inactive),20.6 µM (inactive),30.6 µM (inactive),46.8 µM (inactive),6.68 µM (inactive)
Oc1c2cc(Br)cc1CCc1cc(Br)cc(c1O)CC2,31.8 µM (inactive),23.7 µM (inactive),36 µM (inactive),18.2 µM (inactive),15.1 µM (inactive),15.7 µM (inactive),38.2 µM (inactive),20.2 µM (inactive),17.3 µM (inactive),16.2 µM (inactive),22.3 µM (inactive),30.1 µM (inactive),28.8 µM (inactive),28.6 µM (inactive),28.4 µM (inactive),27 µM (inactive),20 µM (inactive),20.8 µM (inactive),31 µM (inactive),18.6 µM (inactive)
COc1cccc(CCCNC(=O)Cc2ccccc2CO)c1,> 100 µM (inactive),> 100 µM (inactive),> 100 µM (inactive),> 100 µM (inactive),> 100 µM (inactive),> 100 µM (inactive),> 100 µM (inactive),> 100 µM (inactive),> 100 µM (inactive),> 100 µM (inactive),> 100 µM (inactive),> 100 µM (inactive),> 100 µM (inactive),> 100 µM (inactive),> 100 µM (inactive),> 100 µM (inactive),> 100 µM (inactive),> 100 µM (inactive),> 100 µM (inactive),> 100 µM (inactive)
O=c1ccn(CC2(CO)CC(Cc3ccccc3)C2)c(=O)[nH]1 (configuration not stated),> 100 µM (inactive),> 100 µM (inactive),> 100 µM (inactive),> 100 µM (inactive),> 100 µM (inactive),> 100 µM (inactive),> 100 µM (inactive),> 100 µM (inactive),> 100 µM (inactive),> 100 µM (inactive),> 100 µM (inactive),> 100 µM (inactive),> 100 µM (inactive),> 100 µM (inactive),> 100 µM (inactive),> 100 µM (inactive),> 100 µM (inactive),> 100 µM (inactive),,> 100 µM (inactive)
COC(=O)c1ccc(NCC2=C(Br)C(=O)C=CC2=O)cc1Cl,> 100 µM (inactive),17 µM (inactive),26.9 µM (inactive),> 100 µM (inactive),18 µM (inactive),3.68 µM (inactive),15.5 µM (inactive),3.54 µM (inactive),34.5 µM (inactive),14.9 µM (inactive),17 µM (inactive),16.9 µM (inactive),15.2 µM (inactive),21 µM (inactive),16.8 µM (inactive),18.8 µM (inactive),20.2 µM (inactive),> 100 µM (inactive),> 100 µM (inactive),18.8 µM (inactive)
CC(C)(C)c1ccc2c(c1)C#Cc1cc3c(cc1OCCCO2)C#Cc1cc(C(C)(C)C)ccc1OCCCO3,> 100 µM (inactive),> 100 µM (inactive),> 100 µM (inactive),42.4 µM (inactive),> 100 µM (inactive),> 100 µM (inactive),> 100 µM (inactive),> 100 µM (inactive),> 100 µM (inactive),> 100 µM (inactive),> 100 µM (inactive),> 100 µM (inactive),> 100 µM (inactive),2.2 µM (inactive),> 100 µM (inactive),> 100 µM (inactive),> 100 µM (inactive),> 100 µM (inactive),> 100 µM (inactive),> 100 µM (inactive)
Cc1cc(O)c(O)c(Oc2cc(C)cc(O)c2O)c1,> 100 µM (inactive),11.6 µM (inactive),32 µM (inactive),2.37 µM (inactive),14.5 µM (inactive),1.99 µM (inactive),12.4 µM (inactive),15.1 µM (inactive),22 µM (inactive),4.57 µM (inactive),13.1 µM (inactive),18.7 µM (inactive),> 10 µM (inactive),25.6 µM (inactive),23.3 µM (inactive),32.2 µM (inactive),21.5 µM (inactive),36.8 µM (inactive),35.9 µM (inactive),11.7 µM (inactive)
O=C(O)CC(CC(=O)O)C(=O)O [TRICARBALLYLIC ACID],> 100 µM (inactive),> 100 µM (inactive),> 100 µM (inactive),> 100 µM (inactive),> 100 µM (inactive),> 100 µM (inactive),> 100 µM (inactive),> 100 µM (inactive),> 100 µM (inactive),> 100 µM (inactive),> 100 µM (inactive),> 100 µM (inactive),> 100 µM (inactive),> 100 µM (inactive),> 100 µM (inactive),> 100 µM (inactive),> 100 µM (inactive),> 100 µM (inactive),> 100 µM (inactive),> 100 µM (inactive)
O=C(O)CSCc1cc2c(O)c(c1)Cc1cc(CSCC(=O)O)cc(c1O)Cc1cc(CSCC(=O)O)cc(c1O)Cc1cc(CSCC(=O)O)cc(c1O)C2,> 100 µM (inactive),> 100 µM (inactive),> 100 µM (inactive),> 100 µM (inactive),> 100 µM (inactive),> 100 µM (inactive),> 100 µM (inactive),> 100 µM (inactive),> 100 µM (inactive),> 100 µM (inactive),> 100 µM (inactive),> 100 µM (inactive),> 100 µM (inactive),> 100 µM (inactive),> 100 µM (inactive),> 100 µM (inactive),> 100 µM (inactive),> 100 µM (inactive),> 100 µM (inactive),
O=C1C(Cl)=C(N2CCC[C@H]2CO)C(=O)c2c(O)ccc(O)c21,> 10 µM (inactive),2.03 µM (inactive),1.66 µM (inactive),0.22 µM (active),1.64 µM (inactive),0.0724 µM (active),4.95 µM (inactive),0.425 µM (active),4.34 µM (inactive),2.09 µM (inactive),1.81 µM (inactive),1.86 µM (inactive),1.7 µM (inactive),2.29 µM (inactive),> 10 µM (inactive),1.55 µM (inactive),2.53 µM (inactive),> 10 µM (inactive),> 10 µM (inactive),2.04 µM (inactive)
C=C1[C@H](OC(=O)C(C)C)[C@@H](OC(C)=O)[C@@H](OC(C)=O)C(C)(C)[C@@H]2O[C@H]2[C@@H](C)C(=O)[C@@]2(OC(C)=O)C[C@@](C)(OC(C)=O)[C@H](OC(C)=O)[C@@H]2[C@H]1OC(C)=O,> 100 µM (inactive),> 100 µM (inactive),> 100 µM (inactive),> 100 µM (inactive),> 100 µM (inactive),> 100 µM (inactive),> 100 µM (inactive),> 100 µM (inactive),> 100 µM (inactive),> 100 µM (inactive),> 100 µM (inactive),> 100 µM (inactive),> 100 µM (inactive),> 100 µM (inactive),> 100 µM (inactive),,> 100 µM (inactive),> 100 µM (inactive),> 100 µM (inactive),> 100 µM (inactive)
O=C(N[C@H]1CCC[C@H]1C(=O)Nc1ccc(C(F)(F)F)cc1)OCc1ccccc1,> 100 µM (inactive),> 100 µM (inactive),> 100 µM (inactive),> 100 µM (inactive),> 100 µM (inactive),> 100 µM (inactive),> 100 µM (inactive),> 100 µM (inactive),> 100 µM (inactive),> 100 µM (inactive),> 100 µM (inactive),> 100 µM (inactive),> 100 µM (inactive),> 100 µM (inactive),> 100 µM (inactive),> 100 µM (inactive),> 100 µM (inactive),> 100 µM (inactive),> 100 µM (inactive),> 100 µM (inactive)
Oc1ccccc1-c1nn2c(CCCCCCCCc3nnc4sc(-c5ccccc5O)nn34)nnc2s1,14.5 µM (inactive),12 µM (inactive),5.11 µM (inactive),5.42 µM (inactive),10.5 µM (inactive),1.03 µM (active),4.66 µM (inactive),7.6 µM (inactive),21 µM (inactive),9.46 µM (inactive),11.1 µM (inactive),4.58 µM (inactive),35 µM (inactive),18.8 µM (inactive),8.53 µM (inactive),24.6 µM (inactive),15.9 µM (inactive),15.2 µM (inactive),23.7 µM (inactive),7.06 µM (inactive)
